Laboratory results reported in US7989466B2, “Methods to inhibit or augment an inflammatory response” (Cambridge Enterprise Limited, priority 1999, dated 2011).
Marks after values point to notes of the source that are not given here. Positions of bridges follow the written chain, without caps; N, C: chain ends. Non-standard residues stand in square brackets, D forms with d. No end group written: not given here.

Experiments:
[1] = tested on: MIP1α induced THP-1 migration; experiment: THP-1 trans-well migration assay, MIP1α as chemoattractant; type: cell-based, human; conditions: ns = not significantly different from control
Protocol: (§1) To determine whether an agent inhibits a chemokine-induced activity, such as macrophage recruitment, varying amounts of the agent are mixed with cells in the presence of a known chemoattractant. For example, a range of known concentrations of an agent, e.g., a chemokine peptide, is incubated with a defined number (e.g., 10^4-10^6) of human THP-1 monocyte cells in individual wells of the top compartment of a trans-well plate. Chemokine (such as MCP-1, MIP1α, IL8 or SDF-1α), at a concentration known to cause significant migration of THP-1 cells in the trans-well migration assay, is placed in the lower compartment (FIG. 1). Cells are then incubated at 37° C. for a period sufficient to allow migration, e.g., 4 hours. After incubation, the cells are gently removed from the top of the filter with a pipette, 20 μl of 20 mM EDTA in simple PBS is added into each top well, and incubated for 20 minutes at 4° C. The filter is carefully flushed with media using a gentle flow, and removed. A standard curve consisting of a two-fold dilution series of THP-1 cells (in 29 μl) is prepared to accurately quantify the number of cells that have migrated. Migrated cells are stained with 3 μl of MTT stock dye solution which is added directly into each well (5 mg/ml in RPMI-1640 without phenol red, Sigma Chemical Co.) and incubated at 37° C. for 4 hours. The media is carefully aspirated from each well, and the converted dye is solubilized by 20 μl of DMSO. Absorbance of converted dye is measured at a wavelength of 595 nm using an ELISA plate reader. The number of migrated cells in each well is then determined by interpolation of the standard curve (see also Imai et al., J. Biol. Chem., 272, 15036 (1997)).
(§2) For this assay, THP-1 cells were maintained at a density of 4×10^5 cells per ml in RPMI-1640 supplemented with 10% fetal calf serum+20 μM 2-mercaptoethanol. Chemotaxis was induced in a 96-well disposable chemotaxis chamber fitted with a […] polycarbonate filter (PVP free, ChemoTX, Neuroprobe Inc., Cabin John). Twenty-nine μl of chemoattractant (recombinant human chemokine; 50 ng/ml, i.e., 5.9 nM) or control (100 ng/ml TGFβ) was added to the lower compartment of each well. The framed filter was aligned with the holes in the corner of the filter frame and placed over the wells. Five×10^4 THP-1 cells in 25 μl of RPMI-1640 were added to the upper compartment. Peptides were dissolved in Milli Q water and then serially diluted in culture medium. In most cases, the serially diluted peptides were added to the upper compartment of the chemotaxis chamber. The chamber was incubated at 37° C. in a humidified atmosphere of 5% CO2 for 4 hours.
(§3) After incubation, the cells were gently removed from the top of the filter with a pipette, 20 μl of 20 mM EDTA in PBS was added into each top well, and the mixture was incubated for 20 minutes at 4° C. The filter was then carefully flushed with media using a gentle flow, and removed. A standard curve was prepared to accurately quantify the number of THP-1 cells that had migrated. The curve was based on a two-fold dilution series of THP-1 cells (top standard 100,000 cells in 29 μl). Cells which had migrated, and in separate wells, the cells in the standards, were stained with 3 μl of MTT stock solution which was added directly into each well (5 mg/ml in RPMI 1640 without phenol red, Sigma Chemical Co.) and incubated at 37° C. for 4 hours. The media was carefully aspirated from each well, and the converted dye was solubilized by 20 μl of DMSO. Absorbance of converted dye was measured at a wavelength of 595 nm using an ELISA plate reader. The number of cells that had migrated in each well was determined by interpolation of the standard curve.

[2] = tested on: gp120; conditions: ns = not significantly different from control; >100 = ED50 not determined
[3] = tested on: MCP-1 induced THP-1 migration; experiment: THP-1 trans-well migration assay, MCP-1 as chemoattractant; type: cell-based, human; conditions: ns = not significantly different from control
Protocol: as §1, §2, §3

[4] = tested on: SDF-1α induced THP-1 migration; experiment: THP-1 trans-well migration assay, SDF-1α as chemoattractant; type: cell-based, human; conditions: ns = not significantly different from control
Protocol: as §1, §2, §3

[5] = tested on: HIV; type: cell-based; conditions: ns = not significantly different from control
[6] = in vivo; cited from earlier work
[7] = molecular target: T1, Duffy Antigen Receptor for Chemokines (DARC) (Homo sapiens, UniProt Q16570); experiment: DARC binding: competition with 125I-MCP-1 on red blood cells; conditions: for DARC binding: ns = not significantly different from control, >100 = ED50 not determined
T1 sequence (Q16570 1-336): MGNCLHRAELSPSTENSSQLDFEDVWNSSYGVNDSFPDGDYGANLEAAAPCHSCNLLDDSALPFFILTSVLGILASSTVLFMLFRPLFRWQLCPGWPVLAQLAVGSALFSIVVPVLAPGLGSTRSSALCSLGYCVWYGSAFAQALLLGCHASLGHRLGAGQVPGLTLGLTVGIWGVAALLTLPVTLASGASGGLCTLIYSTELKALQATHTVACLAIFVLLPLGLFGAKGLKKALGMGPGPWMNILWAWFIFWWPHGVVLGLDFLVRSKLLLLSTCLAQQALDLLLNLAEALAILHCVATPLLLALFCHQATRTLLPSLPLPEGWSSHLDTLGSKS

[8] = tested on: chemokine-induced THP-1 migration; experiment: THP-1 trans-well migration assay, panel of chemokines (MCP-1, MIP1α, IL-8, SDF1α); type: cell-based, human; conditions: MCP-1, MIP1α, IL-8, SDF1α
[9] = tested on: chemokine receptors on THP-1 cells; experiment: Binding to chemokine receptors on THP-1 cells; set-up: species or system human
Protocol: In general, specific binding is calculated as the amount of labeled agent bound in the absence of cold competitor minus the amount of labeled agent bound in the presence of cold competitor. The amount of specific binding in the presence of varied amounts of cold competitor can be used to determine the association constant for the agent, as well as the number of binding sites on the cell for the agent, using, for example, Scatchard Analysis. The agent may be labeled by radiolabeling (e.g., iodination) or with a suitable biochemical tag (e.g., biotin) or by addition of a photoactivatable crosslinking group. Agents with an association constant lower than 100 μM (i.e., which bind more strongly than an agent with an association constant of 100 μM) and which have at least about 2,500, preferably at least about 10,000, and more preferably greater than 25,000, binding sites per cell for at least one cell type which expresses a chemokine receptor, fall under the scope of this invention. THP-1 cells have at least about 5,000 MCP-1 receptors/cell.
For example, monocytes are suspended in RPMI 1640 medium without bicarbonate containing 0.2% bovine serum albumin and 0.1% azide. Radiolabeled chemokine peptide is incubated with 1-2×10^6 cells, e.g., THP-1 cells, in the presence or absence of increasing concentrations of unlabeled chemokine (MCP-1, MCP-3, MCP-4, RANTES or MIP-1α) for 15 minutes at 37° C. in a 96-well plate in a final volume of 0.2 ml (e.g., PBS+0.5% FCS). After the incubation, 0.5 ml of ice-cold wash buffer (20 mM Tris, 0.5 M NaCl, pH 7.4) is added, and cells are collected onto a polyethyleneimine-treated Whatman GF/C filter using a Brandall cell harvester. Filters are washed with 4 ml of cold wash buffer, and the radioactivity bound to the filters is counted in a γ-counter.
For Scatchard analysis, the absorbance readings at 450 nm were calibrated, by reference to a standard curve in which known amounts of labeled peptide were coupled to derivatized sepharose beads (activated thiol-sepharose 4B; Sigma T8512) via the cysteine residue in each peptide. Briefly, known amounts (1 fmol to 1 pmol) of biotin-labeled peptide were incubated with 1 mg of activated thiol-sepharose beads in 100 μl of PBS at 37° C. for 1 hour. Free activated thiols were then blocked by addition of cysteine to a final concentration of 10 mM. The peptide-conjugated beads were then washed 5 times in PBS and treated exactly as for the cells described above. The absorbance at 450 nm obtained when a known amount of peptide was coupled to the beads was used to construct a standard curve which was used to convert the absorbance readings obtained with cells into number of molecules of labeled peptide which had bound.

[10] = tested on: RANTES induced THP-1 migration; experiment: THP-1 trans-well migration assay, RANTES as chemoattractant; type: cell-based, human; conditions: tripeptide at 100 μM, mean ± range; dash = no statistically significant reduction in migration
Protocol: To determine whether an agent inhibits a chemokine-induced activity, such as macrophage recruitment, varying amounts of the agent are mixed with cells in the presence of a known chemoattractant. For example, a range of known concentrations of an agent, e.g., a chemokine peptide, is incubated with a defined number (e.g., 10^4-10^6) of human THP-1 monocyte cells in individual wells of the top compartment of a trans-well plate. Chemokine (such as MCP-1, MIP1α, IL8 or SDF-1α), at a concentration known to cause significant migration of THP-1 cells in the trans-well migration assay, is placed in the lower compartment (FIG. 1). […] A standard curve consisting of a two-fold dilution series of THP-1 cells (in 29 μl) is prepared to accurately quantify the number of cells that have migrated. […] Absorbance of converted dye is measured at a wavelength of 595 nm using an ELISA plate reader. The number of migrated cells in each well is then determined by interpolation of the standard curve (see also Imai et al., J. Biol. Chem., 272, 15036 (1997)). […]
After incubation, the cells were gently removed from the top of the filter with a pipette, 20 μl of 20 mM EDTA in PBS was added into each top well, and the mixture was incubated for 20 minutes at 4° C. […] A standard curve was prepared to accurately quantify the number of THP-1 cells that had migrated. […]

[11] = tested on: TGF-beta receptor of THP-1 cells; experiment: Binding of biotinylated TGF-beta peptides to THP-1 cells; set-up: species or system human; conditions: for EC50: biotinylated peptide, read-out: ED50 of binding to the TGF-beta receptor of THP-1 cells

| Compound | MIPIa ED-50 [1] | gp120 ED-50 [2] | MCP-1 ED-50 [3] | SDF1a ED-50 [4] | % virus inhibition [5] | DARC binding [7] | also measured |
| --- | --- | --- | --- | --- | --- | --- | --- |
| CC[C@H](C)[C@H](NC(=O)[C@H](CCCNC(=N)N)NC(=O)[C@H](CCCNC(=N)N)NC(=O)[C@H](Cc1ccc(O)cc1)NC(=O)[C@@H](N)CO)C(=O)N[C@H](C(=O)N[C@@H](CO)C(=O)N[C@@H](CO)C(=O)N[C@@H](CCCCN)C(=O)N[C@@H](CS)C(=O)O)[C@@H](C)O | ns | 60 µM | ns | ns | ns | – | – |
| NCC[C@H](O)C(=O)N[C@@H]1C[C@H](N)[C@@H](O[C@H]2O[C@H](CN)[C@@H](O)[C@H](O)[C@H]2O)[C@H](O)[C@H]1O[C@H]1O[C@H](CO)[C@@H](O)[C@H](N)[C@H]1O [amikacin] | – | – | – | – | – | – | T1/2 [6]: about 2 hours; Vd [6]: 0.27 L/kg; urinary excretion [6]: 98% |
| =cvaekpsksstirrysc= ([dC][dV][dA][dE][dK][dP][dS][dK][dS][dS][dT][dI][dR][dR][dY][dS][dC]; disulfide 1-17 (inferred); not fully specified (C-terminus); printed as =cvaekpsksstirrysc=) | ns | ns | ns | ns | ns | – | – |
| CSKPGV | ns | ns | ns | ns | ns | ns | – |
| CSYRRITSSKSPKEAVC | ns | – | ns | ns | ns | ns | – |
| DYFETSSQC | ns | ns | ns | ns | ns | ns | – |
| HLKILNTPNCALQIV [Pep2[SDF1]] | 40 =M | 35 µM | 10 =M | 7 =M | – | – | effect on THP-1 migration induced by the chemokine panel, in words [8]: potent pan-chemokine antagonist properties; AVERAGE ED50, peptide 2 family: estimated ka for binding to THP-1 cells [9]: 1-10^e μM; DUFFY SELECTIVITY, peptide 2 family ([7]; ka for binding to red blood cells divided by the ka for binding THP-1 cells): <1^d |
| SES | – | – | – | – | – | – | percentage inhibition of migration induced by RANTES [10]: 87 ± 4% |
| SYRRI | ns | ns | ns | ns | ns | ns | – |
| TSSKC | ns | ns | ns | ns | ns | ns | – |
| biotinylated HEPKGYHANFC [Biotinylated T2] | – | – | – | – | – | – | receptor character (agonist, antagonist, neutral) [11]: weak receptor antagonist; EC50 [11]: 30 µM |
| biotinylated LYIDFRQDLGWKW (also: biotinylated, site not given here) [Biotinylated T1] | – | – | – | – | – | – | receptor character (agonist, antagonist, neutral) [11]: receptor neutral agent; EC50 [11]: 18 µM |
| vgpkscqsstefyd | ns | ns | ns | ns | ns | ns | – |
